Results as given in paper PMC3063489 (Molecular and biochemical parasitology, 2011).
Where two headings read alike, the source gives them in different places.

Tests used:
GFP-SmDAT = GFP-SmDAT (Schistosoma mansoni, UniProt E9LD23); format: cell-based; details: COS-7 cells; for uptake of tritiated substrate by SmDAT: 100 nM of each substrate, normalized to dopamine uptake (Fig. 2A)
[1] = tested on: Schistosoma mansoni adult worms; details: adult worms treated with dopamine; cited from earlier work
hDAT = hDAT (Homo sapiens, UniProt Q01959); details: COS-7 cells
Schistosoma = details: cited from earlier work

Sequence of hDAT (Q01959 whole entry): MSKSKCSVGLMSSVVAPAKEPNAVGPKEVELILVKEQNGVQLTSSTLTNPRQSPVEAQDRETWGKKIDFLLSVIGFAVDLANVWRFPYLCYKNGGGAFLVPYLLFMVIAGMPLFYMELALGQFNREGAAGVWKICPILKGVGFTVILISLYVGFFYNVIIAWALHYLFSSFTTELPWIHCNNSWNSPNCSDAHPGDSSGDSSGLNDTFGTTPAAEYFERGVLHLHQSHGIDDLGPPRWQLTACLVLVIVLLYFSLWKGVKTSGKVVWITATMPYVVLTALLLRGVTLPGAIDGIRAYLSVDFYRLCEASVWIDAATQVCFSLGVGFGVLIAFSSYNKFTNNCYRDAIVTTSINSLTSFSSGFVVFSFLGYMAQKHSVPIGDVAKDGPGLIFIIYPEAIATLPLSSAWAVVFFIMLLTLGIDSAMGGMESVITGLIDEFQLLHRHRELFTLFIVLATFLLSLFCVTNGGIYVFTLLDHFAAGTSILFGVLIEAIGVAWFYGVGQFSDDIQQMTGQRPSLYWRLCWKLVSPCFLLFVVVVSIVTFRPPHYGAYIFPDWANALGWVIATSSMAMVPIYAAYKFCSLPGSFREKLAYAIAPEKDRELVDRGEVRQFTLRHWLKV

In the case of `NC[C@H](O)c1ccc(O)c(O)c1` [Norepinephrine], the “uptake of tritiated substrate by SmDAT” value (GFP-SmDAT) is reported as “low but significant levels”.

For `NCCc1ccc(O)c(O)c1` [dopamine], the “effect on adult worms” value [1] is given as “relaxation of muscles and a lengthening of the worms”, the “Vmax of dopamine uptake, GFP-SmDAT” value (GFP-SmDAT) is given as 0.16 ± 0.04 pmol/well/min and the “Vmax of dopamine uptake, GFP-SmDAT” value (GFP-SmDAT; unit as printed in legend of Fig. 2) is given as 0.16 ± 0.04 pmol/min. The “Vmax of dopamine uptake, hDAT” value (hDAT) was 0.9 ± 0.2 pmol/well/min.

In the case of `O=C(C1CCCCC1)N1CC(=O)N2CCc3ccccc3C2C1` (stereo not shown) [praziquantel], the “activity on immature worms and eggs” value (Schistosoma) is given as “not active”.

In the case of `NCCc1c[nH]c2ccc(O)cc12` [serotonin], the “uptake of tritiated substrate by SmDAT” value (GFP-SmDAT) is reported as “could not detect any detectable levels”.
